Measured values as given in ChEMBL document CHEMBL4028819, “Synthesis, antiplatelet and antithrombotic activities of resveratrol derivatives with NO-donor properties” (Bioorg Med Chem Lett, 2017).
Active and inactive are the calls of the source. The calls are words filed in the database; no cut-off is given here.

Columns and labels:
Platelet [1] = experiment: Antiplatelet activity in Wistar rat platelet rich plasma assessed as inhibition of collagen-induced platelet aggregation at 150 uM preincubated for 1 min followed by collagen addition by aggregometric analysis relative to control; type: functional
Platelet [2] = experiment: Antiplatelet activity in Wistar rat platelet rich plasma assessed as inhibition of arachidonic acid-induced platelet aggregation at 150 uM preincubated for 1 min followed by arachidonic acid addition by aggregometric analysis relative to control; type: functional
Mus musculus [3] = experiment: Anti-thrombotic activity in Swiss albino mouse assessed as protection against collagen/epinephrine-induced pulmonary thromboembolism at 100 umol/10 g, po administered as single dose pretreated for 60 mins followed by thrombotic challenge relative to control; type: functional
Platelet [4] = experiment: Antiplatelet activity in Wistar rat platelet rich plasma assessed as inhibition of ADP-induced platelet aggregation at 150 uM preincubated for 1 min followed by ADP addition by aggregometric analysis relative to control; type: functional
[5] = Induction of NO release assessed as nitrite formation in aqueous buffer at pH 7.4 measured after 1 hr in presence of L-cysteine by Griess assay; parameters: concentration or dose not given beside the values
Mus musculus [6] = experiment: Toxicity in Swiss albino mouse assessed as bleeding time at 100 umol/10 g administered orally 60 mins prior to test by tail transection method; conditions: in vivo, po, 1 h

SMILES	inhibition at 150 µM (Platelet [1]) [%]	inhibition at 150 µM (Platelet [2]) [%]	Activity (Mus musculus [3])	inhibition at 150 µM (Platelet [4]) [%]	Activity [5] [%]	Time (Mus musculus [6]) [s]
O=S(=O)(c1ccccc1)c1no[n+]([O-])c1S(=O)(=O)c1ccccc1	29.7	6.7	inactive	89.8	32.1	
O=C(N/N=C/c1ccc(O)cc1)c1cccc(O)c1	19.1	72.8		60.3		
O=C(N/N=C/c1ccc(O)cc1)c1ccc(O)cc1	44	79.6	40%	31.3		200
O=C(N/N=C/c1ccc(O)cc1)c1ccccc1O	35.9	42.5		58.2		
O=C(N/N=C/c1cccc(Oc2no[n+]([O-])c2S(=O)(=O)c2ccccc2)c1)c1ccccc1O	25.5	17		84.2	25.3	
O=C(N/N=C/c1cccc(O)c1)c1ccc(O)cc1	33.1	74.1		42.4		
O=C(N/N=C/c1cccc(O)c1)c1cccc(O)c1	29.1	48.2		46.1		
O=C(N/N=C/c1ccc(Oc2no[n+]([O-])c2S(=O)(=O)c2ccccc2)cc1)c1ccc(O)cc1	72.2	20.3	80%	87.1	25.8	380
O=C(N/N=C/c1cccc(Oc2no[n+]([O-])c2S(=O)(=O)c2ccccc2)c1)c1cccc(O)c1	44.8	25		88.4	24.1	
O=C(N/N=C/c1ccc(Oc2no[n+]([O-])c2S(=O)(=O)c2ccccc2)cc1)c1cccc(O)c1	54.3	37.3		82.2	26.2	
O=C(N/N=C/c1ccc(Oc2no[n+]([O-])c2S(=O)(=O)c2ccccc2)cc1)c1ccccc1O	34.4	8.5		74.3	24.5	
O=C(N/N=C/c1cccc(Oc2no[n+]([O-])c2S(=O)(=O)c2ccccc2)c1)c1ccc(O)cc1	39.9	14.3		91.9	27.4	
CC(=O)Oc1ccccc1C(=O)O [ASPIRIN]	63.4	28.9	40%	27.7		800
O=C(N/N=C/c1cccc(O)c1)c1ccccc1O	27.5	60.8		56		
